Data on 74 compounds can be found in PubChem BioAssay AID1996.

Molecules are shown by their SMILES. In brackets after ≈: the same amount, converted by molar mass.

The conditions of this data set: buffer; pH 7.4; 200.0 µM.
The kinetic solubility is the concentration staying in solution when a stock, usually in DMSO, is diluted into the medium. Take `COCCCn1c(=S)[nH]c2sc3c(c2c1=O)CCCC3`: the kinetic solubility was more than 46.6 µg/mL.

`COc1ccc(CCNC(=O)c2c(C)nc3ccccn23)cc1OC` gave a solubility (kinetic) of more than 50.9 µg/mL.

On to `c1cc2c3c(cccc3c1)NC(c1ccc3c(c1)OCO3)N2`, for which the solubility (kinetic) stood at 9.5 µg/mL (≈ 32.7 µM).

Take `CCc1c(C)nc(N2CCN(c3ccc(Cl)cc3)CC2)[nH]c1=O`: the solubility (kinetic) is 1.1 µg/mL (≈ 3.3 µM).

Take `COc1ccc(-c2noc(CCCC(=O)N3CCOCC3)n2)cc1`: the kinetic solubility was 49.6 µg/mL (≈ 150 µM).

In the case of `COCCN1C(=O)c2ccc(C(=O)NCc3ccco3)cc2C1=O`, the kinetic solubility is more than 49.2 µg/mL.

`Cn1cc(C(=O)OCC(=O)NC2CCCC2)c2ccccc21` came in with a solubility (kinetic) of 7.2 µg/mL (≈ 24 µM).

`S=C(c1ccc(-c2ccc(Br)cc2)o1)N1CCCCC1`: the kinetic solubility was less than 0.8 µg/mL.

`O=C(O)CNC1c2ccccc2CSc2ccccc21` (centres undefined) gave a kinetic solubility of more than 42.8 µg/mL.

With `CC(C)CN1C(=O)C(=O)N(CC(=O)c2ccc3c(c2)CCCC3)C1=O`, the kinetic solubility came out at 47.2 µg/mL (≈ 138 µM).

Turning to `COc1cccc(Oc2ccc(C(F)(F)F)cc2NC(=O)C2=COCCO2)c1`, the kinetic solubility is 1.5 µg/mL (≈ 3.79 µM).

As to `Cc1cc(NC(=O)/C=C\C(=O)O)c([N+](=O)[O-])cc1C`, the kinetic solubility came to 39.4 µg/mL (≈ 149 µM).

Turning to `O=S(=O)(O)c1ccc(SCc2ccccc2)nc1`, the solubility (kinetic) was more than 42.2 µg/mL.

The compound `Cc1ccc2c(c1)c1c3n2CCNC3CCC1.Cl` (centres undefined) showed a kinetic solubility of more than 39.4 µg/mL.

Regarding `CC(=O)c1ccc(NC(=S)Nc2cccc3ccccc23)cc1`, the solubility (kinetic) was 10.6 µg/mL (≈ 33.1 µM).

Compound `COc1cccc(/C=N/NC(=O)CNC(=O)COc2ccccc2)c1O` had a kinetic solubility of more than 53.6 µg/mL.

The compound `NC(=O)c1ccc(NC(=O)CN2CCOCC2)cc1` displayed a solubility (kinetic) of 35.6 µg/mL (≈ 135 µM).

The compound `CC(C)(C)c1cc(CCC(=O)N2CCC2)cc(C(C)(C)C)c1O` had a kinetic solubility of 42.6 µg/mL (≈ 134 µM).

`O=C(O)/C=C/C(=O)NCCc1ccccc1` yielded a kinetic solubility of more than 32.9 µg/mL.

`ClCc1nc2ccccc2c2ccccc12` gave a kinetic solubility of 3.2 µg/mL (≈ 14.1 µM).

`CC(=O)Nc1ccc(C(=O)O)cc1`: the solubility (kinetic) was more than 26.9 µg/mL.

Take `CCOc1ccc(S(=O)(=O)NCCC(=O)NC2CCC(C)CC2)cc1` (centres undefined): the kinetic solubility was found to be 37.7 µg/mL (≈ 102 µM).

As for `Cl.c1ccc2c(c1)CN1CCCC1=N2`, the solubility (kinetic) is more than 31.3 µg/mL.

`COC(=O)C(C)Nc1cccc(Br)c1` (centres undefined) returned a solubility (kinetic) of 21.8 µg/mL (≈ 84.5 µM).

For the compound `O=C1CCc2cc(S(=O)(=O)Nc3ccccc3)cc3c2N1CC3`, the solubility (kinetic) was more than 49.3 µg/mL.

The compound `Cn1c(CO)nc2c3ccccc3ccc21` gave a kinetic solubility of more than 31.8 µg/mL.

Regarding `COc1ccccc1/C=C/C(=O)OCC(=O)Nc1ccc(Cl)cn1`, the solubility (kinetic) was found to be 1.1 µg/mL (≈ 3.17 µM).

Take `Nc1c([N+](=O)[O-])cc(-c2cnc[nH]2)cc1[N+](=O)[O-]`: the solubility (kinetic) is less than 0.1 µg/mL.

As to `Cc1ccc(C)c(NC(=O)C[n+]2ccccc2)c1.[Cl-]`, the solubility (kinetic) turned out to be 40.8 µg/mL.

In the case of `CCOc1cc(C(N)=O)cc(Br)c1OCc1ccccc1`, the solubility (kinetic) stood at 12.8 µg/mL (≈ 36.5 µM).

Consider `COc1ccc(OC)c(-c2cc(C(=O)Nc3ccccc3C(N)=O)c3ccccc3n2)c1`, for which the solubility (kinetic) was found to be 5.9 µg/mL (≈ 13.8 µM). Compared with the last compound, the solubility kinetic is about 2.2-fold lower.

Consider `COc1cc(C(=O)NCC(=O)N2CCN(S(=O)(=O)c3ccccc3C(F)(F)F)CC2)cc(OC)c1OC`, for which the solubility (kinetic) is more than 81.8 µg/mL.

`S=C1NCN(Cc2cccnc2)CN1`: the kinetic solubility is more than 31.2 µg/mL.

The compound `O=C(COC(=O)c1ccc(Cl)nc1)NCCc1ccc(Cl)cc1` displayed a solubility (kinetic) of 21.4 µg/mL (≈ 60.6 µM).

In the case of `Cc1ccc(-n2c(O)c(C=NCCCn3ccnc3)c(=O)[nH]c2=O)cc1`, the solubility (kinetic) was more than 53 µg/mL.

`CC[N+](C)(C)c1cccc(O)c1.[Cl-]` showed a solubility (kinetic) of more than 30.3 µg/mL.

With `CCOC(=O)c1c(NC(=O)CN2CCN(C(=O)c3ccco3)CC2)sc(C(N)=O)c1C`, the solubility (kinetic) was 5.6 µg/mL (≈ 12.5 µM).

In turn, `CC(=O)c1cccc(NC(=O)CCn2c(=S)oc3ccccc32)c1` came in with a solubility (kinetic) of 0.8 µg/mL (≈ 2.35 µM).

Take `COc1ccc(C2C(C)C3(O)CC(C#N)(C(=O)N3)C2(C#N)C#N)cc1` (centres undefined): the kinetic solubility was more than 50.5 µg/mL.

In the case of `CNc1nnc(-c2ccc(OC)cc2)s1`, the kinetic solubility was more than 33.2 µg/mL.

As to `Cc1ccnc(NC(=O)c2ccccc2NC(=O)c2ccccc2)c1`, the solubility (kinetic) was less than 0.2 µg/mL.

`Cc1cccc(C)c1OCC(=O)N1CCc2ccccc2C1` gave a solubility (kinetic) of 34.5 µg/mL (≈ 117 µM).

Take `CC(CNC(=O)c1ccccc1Cl)c1ccccc1` (centres undefined): the solubility (kinetic) is 36.6 µg/mL (≈ 134 µM).

In the case of `CC(C)(C)c1ccc(OCCCn2ccnc2)cc1`, the solubility (kinetic) is 25.5 µg/mL (≈ 98.7 µM).

As for `Cc1ccc(C(=O)NCC(=O)NC2CCC(C)CC2)s1` (centres undefined), the solubility (kinetic) was found to be 7.6 µg/mL (≈ 25.8 µM).

`O=C(COC(=O)c1cc(Cl)nc(Cl)c1)Nc1ccc(Cl)c(S(=O)(=O)N2CCOCC2)c1` had a solubility (kinetic) of 31.7 µg/mL (≈ 62.3 µM).

Turning to `CC(C)(C)c1ccc(NC(=O)Nc2ccc3ccccc3n2)cc1`, the kinetic solubility was less than 0.2 µg/mL.

Turning to `COc1ccc(NC(=O)CN(C)Cc2cccs2)cc1Cl`, the kinetic solubility was determined as 42.1 µg/mL (≈ 130 µM).

Regarding `O=C(NC1CC1)c1sc2cc(Cl)ccc2c1Cl`, the kinetic solubility amounted to 1.2 µg/mL (≈ 4.19 µM).

`Cc1ccc(NC(=S)N2CCCC2)cc1Cl`: the solubility (kinetic) turned out to be 12.5 µg/mL (≈ 49.1 µM).

Take `CN(Cc1ccccc1)/C(=N/O)c1cccc(Cl)c1`: the solubility (kinetic) worked out at 26.4 µg/mL (≈ 96.1 µM).

On to `O=S(=O)(c1ccc(Br)cc1)N1CCCc2ccccc21`, for which the solubility (kinetic) amounted to 1.6 µg/mL (≈ 4.54 µM).

`O=C(CCc1ccccc1)Nc1cccnc1` yielded a kinetic solubility of more than 33.9 µg/mL.

In turn, `Cc1ccccc1C(=O)NCCN1CCOCC1.Cl` returned a solubility (kinetic) of more than 42.7 µg/mL.

With `CC(C)(C)c1cc(CCC(=O)NCC2CCCO2)cc(C(C)(C)C)c1O` (centres undefined), the solubility (kinetic) came out at 20.2 µg/mL (≈ 55.9 µM).

The compound `O=C(O)c1ccc(NC2CC(=O)N(Cc3ccccc3)C2=O)cc1` (centres undefined) came in with a solubility (kinetic) of more than 48.7 µg/mL.

The compound `Cc1ccc(CNC(=O)CCCC(=O)c2ccccc2)cc1` came in with a kinetic solubility of 7.9 µg/mL (≈ 26.7 µM).

Regarding `COCCn1c(SCC(=O)NC(=O)NC2CCCCC2)nc2ccccc2c1=O`, the solubility (kinetic) came to 4.6 µg/mL (≈ 11 µM).

Turning to `CCOc1ccccc1C1NC(=O)CCC1[N+](=O)[O-]` (centres undefined), the solubility (kinetic) was more than 39.6 µg/mL.

`COc1cc(/C=C/C(=O)OCC(=O)N2CCCc3ccccc32)ccc1O` displayed a solubility (kinetic) of 33.1 µg/mL (≈ 90.1 µM).

Turning to `COc1cccc(S(=O)(=O)Nc2noc3ccccc23)c1`, the solubility (kinetic) was 37.6 µg/mL (≈ 124 µM). The solubility kinetic values of the last two compounds are within 1.5-fold of each other.

Regarding `COc1ccc(NC(=O)c2ccc3nc[nH]c3c2)cc1`, the solubility (kinetic) was more than 40.1 µg/mL.

In the case of `O=S(=O)(c1ccc(F)c(F)c1)N1CCN(c2ccccn2)CC1`, the solubility (kinetic) worked out at 1.5 µg/mL (≈ 4.42 µM).

Compound `O=C(Nc1ccc(F)cc1F)NC1CCCCCCC1` had a solubility (kinetic) of 1.9 µg/mL (≈ 6.73 µM). This solubility kinetic and that of the compound before are within 1.5-fold of each other.

In turn, `CCN1CCN(C(=O)NC2CC(=O)N(c3ccc(OC)cc3)C2)CC1` (centres undefined) gave a kinetic solubility of more than 52 µg/mL.

`O=C(Cc1ccccc1[N+](=O)[O-])NCCCc1ccccc1` had a kinetic solubility of 43.2 µg/mL (≈ 145 µM).

`Cc1ccccc1NC1=NC(=S)N(CC(N)=O)C12CCOC(C)(C)C2` (centres undefined) gave a kinetic solubility of more than 54.1 µg/mL.

With `N/C(CS(=O)(=O)c1ccccn1)=N\OC(=O)c1ccccc1Cl`, the solubility (kinetic) turned out to be 46.5 µg/mL (≈ 131 µM).

`CC(Nc1nc(-c2ccccc2F)nc2ccccc12)c1ccccc1` (centres undefined) yielded a solubility (kinetic) of 3.2 µg/mL (≈ 9.32 µM).

In the case of `COCCNC(=O)C(NC(=O)C1CCC(C)CC1)C(C)C` (centres undefined), the kinetic solubility was more than 44.8 µg/mL.

Take `O=C1c2ccccc2-c2cccc(C(=O)N3CCCCC3)c21`: the solubility (kinetic) worked out at 36.7 µg/mL (≈ 126 µM).

Turning to `Cc1cccc(C)c1OCC(=O)NC1CC1`, the kinetic solubility is more than 32.9 µg/mL.

`Cc1cccnc1NC(=O)NC(=O)c1ccc(C(C)(C)C)s1` registered a solubility (kinetic) of 9.1 µg/mL (≈ 28.7 µM).

With `N#C/C(=C\c1cccnc1)c1ccccc1[N+](=O)[O-]`, the kinetic solubility is 8 µg/mL (≈ 31.8 µM).
